Laboratory results taken from patent US20190113503A1 (priority 2016, published 2019).

Assays:
human skin fibroblasts = details: colchicine 20 ng/mL (around 0.05 μM), 72 hours; background 0.2-0.9%; cited from earlier work
human lymphocytes = details: colchicine 0.06 μM, 24 hours; controls 1%; cited from earlier work
KCB cells = details: 12-14 hours exposure
Description: The inventive cells were cryopreserved in a solution consisting of 10% DMSO and 10% FBS (fetal-bovine-serum) in MEM (minimum-essential-medium) at −80° C. The cells were thawed, washed with MEM and transferred to a 96 micro-well plate. In order to avoid evaporation of medium and consequent bias in MN frequency, the outer wells were left empty and the micro-well plate was sealed with duct tape. The inner wells were filled with cells in medium. The medium employed was composed of 86% MEM, 10% FBS, 1% non-essential-amino acids, 1% streptomycin (5 mg/ml in PBS—phosphate-buffered saline), 1% penicillin (3.125 mg/ml in PBS) and 1% amphotericin (250 μg/ml in deionized water). The cells were cultivated at 26° C. until they formed a moderately dense monolayer. The time until optimal monolayer density was achieved varied from two to five days.
Two untreated (i.e. not exposed to genotoxic compounds) columns served as internal (negative) controls of each plate.
It is possible, but not absolutely necessary, to replace the exposure medium by a recovery medium before the scoring. The scoring of micronuclei shall take place earliest 2 hours and latest 12 hours after the end of the exposure period.
In the basic test, a minimum of two pictures per well, corresponding to at least 24 pictures per concentration or control, were taken under a fluorescence microscope with an objective magnification of 40×. Normal cell nuclei, MN and fragmented nuclei in each picture were counted visually with aid of the “Cell Counter” plugin from the public domain image processing software “ImageJ”. Finally, the frequencies of MN per concentration were calculated.

[1] = test system: carp (Cyprinus carpio) erythrocytes; details: fish injected with 0.4 mg colchicine/kg body weight; background 2%; cited from earlier work

Row | SMILES | MN frequency (human skin fibroblasts) | MN frequency (human lymphocytes) | concentrations at which a cytotoxic threshold may have been achieved (MN frequency diminishing or stabilizing) (KCB cells) | maximal MN frequency (KCB cells; colchicine at 0.375 μM) [%] | maximal frequency of fragmented nuclei (KCB cells; colchicine at 0.5 μM) [%] | MN frequency [1]
1 | COc1cc2c(c(OC)c1OC)-c1ccc(OC)c(=O)cc1[C@@H](NC(C)=O)CC2 [colchicine] | up to 4.7% | around 15.2% | higher than 0.188 μM | 1.77 | 6.85 | around 10%
2 | O=[N+]([O-])c1cc[n+]([O-])c2ccccc12 [4NQO, 4-Nitroquinoline 1-oxide] | – | – | ≥ 0.6 µM | – | – | –
